The source of these data is US6146615A, “Contrast agents for image enhancement in magnetic resonance imaging” (priority 1999, dated 2000).

In one series the test system is mice. Particulars: metal chloride salts in aqueous solution, mice i.p.; cited from earlier work.
In the next series the test system is Muscle. In words: T1-weighted MRI of tumor-bearing rats: percentage enhancement of muscle. As to conditions: 100 μmol agent/kg bw iv, muscle line below large tumor. It is filed as in vivo, rat (inbred Copenhagen, male). An excerpt:
(§1) A T1 -weighted MRI examination (SE 400/15; SISCO SIS 85, 2 T) of the iron complex of ligand XI, Fe-DESAC, in rats (inbred Copenhagen, male, ca. 250 g bw) with implanted prostatic tumors (Dunning R3327, MAT/Lu) in the thigh muscles has been performed.
(§2) A T1 -weighted MRI examination (SE 400/15; SISCO SIS 85, 2 T) of three of these new MR contrast agents, the Fe(III) complexes of ligands XI, XVII and XXII in rats (inbred Copenhagen, male, ca. 250 g bw) with implanted prostatic tumors (Dunning R3327, MAT/Lu) in the thigh muscles was performed.

The subject of series [1] is implanted prostatic tumors (Dunning R3327, MAT/Lu). In words: T1-weighted MRI of tumor-bearing rats: percentage enhancement of tumor. It is filed as in vivo, rat (inbred Copenhagen, male).
Source text: as §1
Thus, differentiation of tumor from surrounding muscle was straightforward with both contrast agents.
as §2

Series [2] relates to liver and kidney. Nature of the series: MR imaging experiments on healthy rats: percent enhancement of liver and kidney. It is filed as in vivo, rat (female Fischer 344). As to conditions: 0.10 mmol/kg, tail vein, FIG. 1. How it is done: Animal studies were performed with a 1.5-T superconducting MR unit (Signa. GE Medical Systems) using a send-and-receive head coil containing two anesthetized female Fischer 344 rats. After a localizer image were obtained, a spin-echo pulse sequence were used with a 256×256 matrix (three signals acquired) over a 20-cm field of view with a thickness of 3 mm and a 1.5-mm intersection gap. The pulse sequence parameters were TR =300 ms and TE =20 ms. Sagittal images were collected before administration of the contrast agent, and after administration, five more images were collected. Operator defined region-of-interest (ROI) measurements were made upon the organs under study for the pre- and postcontrast images. ROI measurements were recorded for the liver and kidney. For the liver, three slices were studied and for the kidneys, a single slice through each kidney was studied.
Percent enhancement was calculated by the following equation: [formula]
Female Fischer 334 rats were used in the imaging experiments. The subjects were weighed and anesthetized with 65 mg/kg pentobarbital. The preinjection pulse sequence was performed, then the contrast agent was administered. The concentration used was 0.10 mmollkg with an injection volume of 0.5 mL used throughout, administered over a time range of approximately three minutes. […]

In series [3] the test system is liver and kidney. As to conditions: over the same time period as FIG. 1; Davies et al. 1996, U.S. Pat. No. 5,494,656; cited from earlier work.

“Also recorded” adds a separate entry of the source.

As to `[Gd]` [gadolinium], the LD50 (commonly the dose expected to kill half of the subjects tested) in the series with mice is listed as 1.4 mmol/kg.
As to `O=C([O-])CN(CCN(CC(=O)[O-])CC(=O)O)CCN(CC(=O)[O-])CC(=O)O.[Gd+3]` [Gd-DTPA, gadolinium ion chelated with the ligand diethylenetriaminepentaacetic acid], the “Percentage enhancement, muscle (large, necrotic tumor), 1 hr” value with Muscle (1 hr post contrast) is reported as “+10 ± 6%”. Further, the “Percentage enhancement, muscle (large, necrotic tumor), 24 hr” value in the series with Muscle (24 hr post contrast) is listed as -4 ± 2%. Besides, the “Percentage enhancement, large, necrotic tumor, 1 hr” value in series [1] (100 μmol agent/kg bw iv, 1 hr post contrast) was “+52 ± 14%”. In addition, the “Percentage enhancement, large, necrotic tumor, 24 hr” value in series [1] (100 μmol agent/kg bw iv, 24 hr post contrast) is -11 ± 8%. Moreover, the “enhancement of necrotic tumor tissue” value in series [1] (large (almost completely necrotic) tumor, 24 hr post contrast) was “no such enhancement was found with Gd-DTPA; also recorded: no significant enhancement of tumor”. For the same compound, the “differentiation of tumor from surrounding muscle” value in series [1] (single iv application) is “straightforward”. In addition, the “tumor enhancement, 3 hr” value in series [1] (single iv application, 3 hr post contrast) is reported as “significant tumor enhancement”.
Consider Fe(III) tris(tironate), for which the liver-specificity entry in the series with liver and kidney [2] is listed as “does not show this tissue specificity”. In addition, the liver enhancement in the series on liver and kidney [3] is at most 15%.
In the case of iron, the LD50 in the series on mice is 1.6 mmol/kg.
Take `[Mn+2]` [manganese]: the LD50 with mice is 1.5 mmol/kg.
